Experimental data from patent publication US20260295053A1, “COMPOUNDS FOR DEGRADATION AND INHIBITION OF KRAS (G12D) PROTEIN” (Shenzhen Ionova Life Science Co., Ltd., priority 2023, published 2026).

Columns and labels:
KRAS (G12D) = biological target: T1, KRAS (G12D) (Homo sapiens, UniProt P01116, G12D); assay: KRAS (G12D) cellular degradation assay in AsPC-1 cells; type: cell-based; conditions: 24 hours, antibody fluorescence (Odyssey CLX), DC50 half-maximal degradation concentration
T1 construct: in-cell western with KRAS G12D antibody after 24 h
Summary of the method: (§1)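 AsPC-1 cells were seeded at 22,000/well for degradation and 3,500/well for proliferation. Compounds in 1:3 dilutions ([…] to 1.5 nM final) ran 24 h for degradation, read by in-cell immunofluorescence of KRAS G12D normalised to β-actin, and 6 days for proliferation (CellTiter Glo luminescence). DC50/IC50 came from dose-response fits.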

AsPC-1 cells = assay: AsPC-1 cell proliferation assay (CellTiter Glo); type: cell-based; conditions: Homo sapiens, ASPC1, 144 h, 6 days
Summary of the method: as §1

T1 sequence (P01116 1-188 isoform P01116-2 G12D): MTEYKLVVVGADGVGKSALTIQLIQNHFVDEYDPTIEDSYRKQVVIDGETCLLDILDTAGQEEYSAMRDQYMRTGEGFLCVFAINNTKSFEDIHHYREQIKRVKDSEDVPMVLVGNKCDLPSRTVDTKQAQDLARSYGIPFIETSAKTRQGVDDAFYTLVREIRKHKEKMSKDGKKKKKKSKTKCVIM

| SMILES | DC50 (KRAS (G12D)) | IC50 (AsPC-1 cells) |
| --- | --- | --- |
| CCn1nccc1-c1ccc([C@H](CO)NC(=O)[C@@H]2C[C@@H](O)CN2C(=O)[C@H](C(C)C)n2cc(-c3ccc(COc4c(-c5c(C)c(F)cc6[nH]ncc56)c(C5CC5)cc5c(N6C[C@H]7C[C@@H]6CN7)nc(OC6CCOCC6)nc45)cc3)nn2)cc1 (stereo in doubt) [Example 10, (2S,4R)-1-((2S)-2-(4-(4-(((4-((1R,4R)-2,5-diazabicyclo[2.2.1]heptan-2-yl)-6-cyclopropyl-7-(6-fluoro-5-methyl-1H-indazol-4-yl)-2-((tetrahydro-2H-pyran-4-yl)oxy)quinazolin-8-yl)oxy)methyl)phenyl)-1H-1,2,3-triazol-1-yl)-3-methylbutanoyl)-N—((R)-1-(4-(1-ethyl-1H-pyrazol-5-yl)phenyl)-2-hydroxyethyl)-4-hydroxypyrrolidine-2-carboxamide] | 10 to 100 nM | 10 to 100 nM |
| COC1CCC(Oc2nc(N3C[C@@H]4C[C@H]3CN4)c3cc(C4CC4)c(-c4c(C)c(F)c(F)c5[nH]ncc45)c(OCc4ccc(-c5cn([C@H](C(=O)N6C[C@H](O)C[C@H]6C(=O)N[C@@H](CO)c6ccc(-c7scnc7C)cc6)C(C)C)nn5)cc4)c3n2)CC1 (stereo partly drawn) [Example 103, (2S,4R)-1-((2S)-2-(4-(4-(((4-((1S,4S)-2,5-diazabicyclo[2.2.1]heptan-2-yl)-6-cyclopropyl-7-(6,7-difluoro-5-methyl-1H-indazol-4-yl)-2-(((1s,4R)-4-methoxycyclohexyl)oxy)quinazolin-8-yl)oxy)methyl)phenyl)-1H-1,2,3-triazol-1-yl)-3-methylbutanoyl)-4-hydroxy-N—((R)-2-hydroxy-1-(4-(4-methylthiazol-5-yl)phenyl)ethyl)pyrrolidine-2-carboxamide] | 10 to 100 nM | < 10 nM |
| CCn1nccc1-c1ccc([C@@H](NC(=O)[C@@H]2C[C@@H](O)CN2C(=O)[C@H](C(C)C)n2cc(-c3ccc(COc4c(-c5c(C)c(F)cc6[nH]ncc56)c(C5CC5)cc5c(N6C[C@@H]7C[C@H]6CN7)nc(O[C@H]6C[C@H](OC)C6)nc45)cc3)nn2)[C@H](C)O)cc1 [Example 109, (2S,4R)-1-((2S)-2-(4-(4-(((4-((1S,4S)-2,5-diazabicyclo[2.2.1]heptan-2-yl)-6-cyclopropyl-7-(6-fluoro-5-methyl-1H-indazol-4-yl)-2-((1r,3S)-3-methoxycyclobutoxy)quinazolin-8-yl)oxy)methyl)phenyl)-1H-1,2,3-triazol-1-yl)-3-methylbutanoyl)-N-((1R,2S)-1-(4-(1-ethyl-1H-pyrazol-5-yl)phenyl)-2-hydroxypropyl)-4-hydroxypyrrolidine-2-carboxamide] | < 10 nM | < 10 nM |
| CCn1nccc1-c1ccc([C@H](CO)NC(=O)[C@@H]2C[C@@H](O)CN2C(=O)[C@H](C(C)C)n2cc(-c3ccc(COc4c(-c5c(C)c(F)cc6[nH]ncc56)c(C5CC5)cc5c(N(C)C[C@H]6CCNC6)nc(OC[C@H](C)OC)nc45)cc3)nn2)cc1 [Example 206, (2S,4R)-1-((2S)-2-(4-(4-(((6-cyclopropyl-7-(6-fluoro-5-methyl-1H-indazol-4-yl)-2-((S)-2-methoxypropoxy)-4-(methyl(((S)-pyrrolidin-3-yl)methyl)amino)quinazolin-8-yl)oxy)methyl)phenyl)-1H-1,2,3-triazol-1-yl)-3-methylbutanoyl)-N—((R)-1-(4-(1-ethyl-1H-pyrazol-5-yl)phenyl)-2-hydroxyethyl)-4-hydroxypyrrolidine-2-carboxamide] | < 10 nM | < 10 nM |

Next, values leading:

| DC50 (KRAS (G12D)) | IC50 (AsPC-1 cells) | SMILES |
| --- | --- | --- |
| < 10 nM | < 10 nM | CCn1nccc1-c1ccc([C@@H](NC(=O)[C@@H]2C[C@@H](O)CN2C(=O)[C@H](C(C)C)n2cc(-c3ccc(COc4c(-c5c(C)c(F)cc6[nH]ncc56)c(C5CCC5)cc5c(N6C[C@@H]7C[C@H]6CN7)nc(OC[C@H](C)OC)nc45)cc3)nn2)[C@H](C)O)cc1 [Example 88, (2S,4R)-1-((2S)-2-(4-(4-(((4-((1S,4S)-2,5-diazabicyclo[2.2.1]heptan-2-yl)-6-cyclobutyl-7-(6-fluoro-5-methyl-1H-indazol-4-yl)-2-((S)-2-methoxypropoxy)quinazolin-8-yl)oxy)methyl)phenyl)-1H-1,2,3-triazol-1-yl)-3-methylbutanoyl)-N-((1R,2S)-1-(4-(1-ethyl-1H-pyrazol-5-yl)phenyl)-2-hydroxypropyl)-4-hydroxypyrrolidine-2-carboxamide] |
| < 10 nM | < 10 nM | CO[C@@H](C)COc1nc(N2C[C@@H]3C[C@H]2CN3)c2cc(C3CC3)c(-c3c(C)c(F)c(Cl)c4[nH]ncc34)c(OCc3ccc(-c4cn([C@H](C(=O)N5C[C@H](O)C[C@H]5C(=O)N[C@@H](CO)c5ccc(-c6scnc6C)cc5)C(C)C)nn4)cc3)c2n1 [Example 97, (2S,4R)-1-((2S)-2-(4-(4-(((4-((1S,4S)-2,5-diazabicyclo[2.2.1]heptan-2-yl)-7-(7-chloro-6-fluoro-5-methyl-1H-indazol-4-yl)-6-cyclopropyl-2-((S)-2-methoxypropoxy)quinazolin-8-yl)oxy)methyl)phenyl)-1H-1,2,3-triazol-1-yl)-3-methylbutanoyl)-4-hydroxy-N—((R)-2-hydroxy-1-(4-(4-methylthiazol-5-yl)phenyl)ethyl)pyrrolidine-2-carboxamide] |
| < 10 nM | < 10 nM | CCn1nccc1-c1ccc([C@H](CC(=O)NC)NC(=O)[C@@H]2C[C@@H](O)CN2C(=O)[C@H](C(C)C)n2cc(-c3ccc(COc4c(-c5c(C)c(F)cc6[nH]ncc56)c(C5CC5)cc5c(N6C[C@@H]7C[C@H]6CN7)nc(OC[C@H](C)OC)nc45)cc3)nn2)cc1 [Example 55, (2S,4R)-1-((2S)-2-(4-(4-(((4-((1S,4S)-2,5-diazabicyclo[2.2.1]heptan-2-yl)-6-cyclopropyl-7-(6-fluoro-5-methyl-1H-indazol-4-yl)-2-((S)-2-methoxypropoxy)quinazolin-8-yl)oxy)methyl)phenyl)-1H-1,2,3-triazol-1-yl)-3-methylbutanoyl)-N—((S)-1-(4-(1-ethyl-1H-pyrazol-5-yl)phenyl)-3-(methylamino)-3-oxopropyl)-4-hydroxypyrrolidine-2-carboxamide] |
| < 10 nM | < 10 nM | CCn1nccc1-c1ccc([C@H](CO)NC(=O)[C@@H]2C[C@@H](O)CN2C(=O)[C@H](C(C)C)n2cc(-c3ccc(COc4c(-c5c(C)c(F)cc6[nH]ncc56)c(C5CC5)cc5c(N6CCCNCC6)nc(OC[C@H](C)OC)nc45)cc3)nn2)cc1 [Example 107, (2S,4R)-1-((2S)-2-(4-(4-(((6-cyclopropyl-4-(1,4-diazepan-1-yl)-7-(6-fluoro-5-methyl-1H-indazol-4-yl)-2-((S)-2-methoxypropoxy)quinazolin-8-yl)oxy)methyl)phenyl)-1H-1,2,3-triazol-1-yl)-3-methylbutanoyl)-N—((R)-1-(4-(1-ethyl-1H-pyrazol-5-yl)phenyl)-2-hydroxyethyl)-4-hydroxypyrrolidine-2-carboxamide] |
